Read-outs that look alike come from different tables or passages of the source.
Tests used:
[1] = target: T1, ENPP-1, MDA-MB-231 cells (Homo sapiens, UniProt P22413); assay: cell-based; conditions: for inhibition at 20 µM: MDA-MB-231, read-out: % Inhibition (at 20 μM)
T1 sequence (P22413 1-925): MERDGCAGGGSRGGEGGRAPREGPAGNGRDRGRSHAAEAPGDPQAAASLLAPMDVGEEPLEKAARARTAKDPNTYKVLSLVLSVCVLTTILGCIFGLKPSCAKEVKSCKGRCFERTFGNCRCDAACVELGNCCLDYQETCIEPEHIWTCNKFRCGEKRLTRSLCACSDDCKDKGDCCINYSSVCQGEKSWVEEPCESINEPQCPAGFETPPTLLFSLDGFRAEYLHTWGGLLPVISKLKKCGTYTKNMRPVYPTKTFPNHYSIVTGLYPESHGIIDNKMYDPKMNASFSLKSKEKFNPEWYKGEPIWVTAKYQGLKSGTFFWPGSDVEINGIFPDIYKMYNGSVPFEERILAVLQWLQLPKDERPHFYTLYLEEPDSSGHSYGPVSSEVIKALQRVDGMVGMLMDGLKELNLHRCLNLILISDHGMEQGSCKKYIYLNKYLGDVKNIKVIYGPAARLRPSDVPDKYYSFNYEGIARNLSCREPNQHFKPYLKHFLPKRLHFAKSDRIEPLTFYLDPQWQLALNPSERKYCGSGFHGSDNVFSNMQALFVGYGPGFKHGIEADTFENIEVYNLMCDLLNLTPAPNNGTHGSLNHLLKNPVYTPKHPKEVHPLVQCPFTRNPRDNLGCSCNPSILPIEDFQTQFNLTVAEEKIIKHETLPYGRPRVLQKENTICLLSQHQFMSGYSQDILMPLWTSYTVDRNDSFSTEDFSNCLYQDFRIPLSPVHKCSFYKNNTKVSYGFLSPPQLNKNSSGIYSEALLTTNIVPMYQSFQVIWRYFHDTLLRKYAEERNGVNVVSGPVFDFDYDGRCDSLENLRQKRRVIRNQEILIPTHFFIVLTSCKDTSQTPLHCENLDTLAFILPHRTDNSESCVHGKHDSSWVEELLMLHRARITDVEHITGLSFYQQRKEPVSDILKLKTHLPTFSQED

[2] = target: T2, human soluble ENPP1 (Homo sapiens, UniProt P22413); assay: ENPP1 activity assay using p-Nitrophenyl-5′-AMP as a substrate; type: biochemical
T2 construct: 20 ng of human soluble ENPP1
T2 sequence (P22413 103-925 limits assumed): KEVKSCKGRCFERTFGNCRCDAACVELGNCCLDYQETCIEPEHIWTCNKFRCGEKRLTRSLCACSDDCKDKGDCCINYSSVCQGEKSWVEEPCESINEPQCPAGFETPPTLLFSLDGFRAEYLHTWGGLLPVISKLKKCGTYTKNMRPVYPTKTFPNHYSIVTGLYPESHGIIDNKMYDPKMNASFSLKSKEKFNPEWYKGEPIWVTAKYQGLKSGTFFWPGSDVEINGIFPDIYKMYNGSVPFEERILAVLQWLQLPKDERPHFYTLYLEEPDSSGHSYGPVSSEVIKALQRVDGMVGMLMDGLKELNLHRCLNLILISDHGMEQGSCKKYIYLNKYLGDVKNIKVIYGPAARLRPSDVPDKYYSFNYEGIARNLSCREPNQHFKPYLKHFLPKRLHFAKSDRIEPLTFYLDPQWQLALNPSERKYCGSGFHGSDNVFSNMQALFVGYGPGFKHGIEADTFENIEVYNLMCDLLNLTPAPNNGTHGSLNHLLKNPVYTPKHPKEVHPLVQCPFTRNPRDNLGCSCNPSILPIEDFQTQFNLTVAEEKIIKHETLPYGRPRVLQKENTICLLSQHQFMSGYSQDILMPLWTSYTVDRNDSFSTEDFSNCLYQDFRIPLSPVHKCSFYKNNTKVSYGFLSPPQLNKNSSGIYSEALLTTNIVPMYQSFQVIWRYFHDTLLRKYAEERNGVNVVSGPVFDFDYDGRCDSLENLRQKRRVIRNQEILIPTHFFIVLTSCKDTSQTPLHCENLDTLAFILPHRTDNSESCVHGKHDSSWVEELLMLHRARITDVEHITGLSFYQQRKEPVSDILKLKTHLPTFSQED
In short: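 Human soluble ENPP1 (35 ng) preincubated with inhibitor 30 min at RT, then p-nitrophenyl-5′-AMP added (3 mM solution, 2× final) and incubated 1 h at RT. p-Nitrophenolate release read at OD 405 nm; % inhibition vs no-inhibitor and blank controls, IC50 from four-parameter fit.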

[3] = target: T2, human soluble ENPP1; assay: ENPP1 activity assay using p-Nitrophenyl-5′-TMP as a substrate; type: biochemical
In short: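 Human soluble ENPP1 (20 ng) was preincubated with inhibitor for 30 min at room temperature. TMP-pNP was then added as a 2 mM […] solution and incubated 1 h at RT, with p-nitrophenol formation read by OD. IC50 came from four-parameter fits of % inhibition relative to no-inhibitor and blank controls.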

[4] = target: T3, ENPP-1, HEK293 cells (Homo sapiens, UniProt P22413); assay: Cellular enzymatic assay of ENPP-1 inhibitors using TMP-pNP as substrate, HEK 293 cells; type: cell-based
T3 construct: ENPP-1 were mainly expressed on the surface of cell membrane; endogenous in cells; host or cells: HEK293
T3 sequence (P22413 1-925): T1 sequence (P22413 1-925)
Experimental: (§1) ENPP-1 were mainly expressed on the surface of cell membrane where it hydrolytes 2′3′-cGAMP to generate 5′-GMP and 5′-AMP. ENPP-1 also has the ability to hydrolyzes artificial phosphoric acid ester TMP-pNP to nucleotide-5′-monophosphate and p-nitrophcnol there, which is a chromogenic product.
(§2) 8 point of different concentrations of each inhibitor were prepared with the final assay concentrations starting at 20 μM. 3× series dilution by DMEM medium without FBS was applied. Prior to adding inhibitors, 75000 cells per well were incubated at 37° C., 5% CO2 in DMEM for 24 hours. After removing the supernatant medium, 50 μL inhibitor solution was added into each well with cultured cells and incubate at 37° C., 5% CO2 for 60 minutes.
(§3) The IC50 values for percent inhibition versus compound concentration are determined by fitting the inhibition curves using a four-parameter variable slope model in GraphPad Prism® 8.

[5] = Pharmacokinetics in mice; type: in vivo; conditions: mouse, plasma, male CD-1 mice, 1 mg/kg, iv; for Vd: read-out: Vdss
Experimental: A dosing solution of test sample was prepared at 1.0 mg/mL in 5% DMSO/40% PEG400/55% water and administered to male CD-1 mice (4-6 weeks old, 20-30 grams, 3 animals each group) via intravenous (IV) bolus at 1 mg/kg and by oral gavage (PO) at 5 mg/kg. Blood samples (˜0.03 mL each time point) were collected via the jugular vein into tubes containing sodium heparin as the anticoagulant at 0.033, 0.083, 0.25, 0.5, 1, 2, 4, 8 and 24 hours post dose for IV administration and 0.083, 0.25, 0.5, 1, 2, 4, 8 and 24 hours post dose for PO administration. The blood samples were then centrifuged for 5 minutes in a centrifuge refrigerated at 4° C. The resultant plasma samples were analyzed using LC/MS/MS to determine concentrations of test sample. Non-compartmental model with WinNonlin (Phoenix™, version 8.0) software was used to calculate pharmacokinetic (PK) parameters.

[6] = target: T4, ENPP-1, Saos-2 cells (Homo sapiens, UniProt P22413); assay: Cellular enzymatic assay of ENPP-1 inhibitors using TMP-pNP as substrate, Saos-2 cells; type: cell-based; conditions: for inhibition at 20 µM: SAOS-2, read-out: % Inhibition (@20 μM)
T4 construct: ENPP-1 were mainly expressed on the surface of cell membrane; endogenous in cells; host or cells: Saos-2
T4 sequence (P22413 1-925): T1 sequence (P22413 1-925)
Experimental: as §1, §2, §3

[7] = Liver microsome stability, mouse; type: in vitro ADME; conditions: for Hepatic extraction ratio Re / microsomal CLint: Mouse liver microsome; for half-life / microsomal CLint: liver microsomes; for half-life: read-out: Half-life t1/2; for microsomal CLint: read-out: Intrinsic clearance Cl′int, (μL/min/mg protein)
Experimental: (§4) Liver microsome assay was used to evaluate the metabolic stability of I-VI. The test article at the concentration of […] was incubated with 0.5 mg/mL liver microsome in the presence of NADPH and UDPGA as the co-factors for 0, 15, 30, 45 and 60 minutes. The incubation was carried out at 37° C. with 5% CO2 and saturating humidity. Disappearance of the test article was monitored by LC/MS/MS. the disappearance half-life (t1/2), intrinsic clearance and hepatic extraction ratio were determined.

[8] = Liver microsome stability, human; type: in vitro ADME
Experimental: as §4

[9] = HEK293, HEK 293 cells, at 20 μM, read-out: Inhibition (at 20 μM)
[10] = HEK293, read-out: Inhibition (at 20 μM)
[11] = Mouse liver microsome 0.5 mg/mL, NADPH and UDPGA, 37° C.

With `COc1ccc2c(ncc3ncn(Cc4ccc(S(N)(=O)=O)cc4)c32)n1` [Compound 39, 4-((7-methoxy-1H-imidazo[4,5-c][1,8]naphthyridin-1-yl)methyl)benzenesulfonamide] the IC50 [1] was 400 nM, the inhibition at 20 µM [1] was 82% and the IC50 [2] was 0.42 nM. The IC50 [3] was 0.25 nM, the IC50 [4] was 730 nM and the inhibition at 20 µM [4, 9] was 94%. It also gave an AUC [5] of 115 ng·h/mL, a clearance [5] of 115 mL/min/kg and a half-life [5] of 19.8 min. The Vd [5] was 3.1 L/kg.
In the case of `COc1ccc2c(ncc3ncn(Cc4ccc(NS(N)(=O)=O)cc4)c32)n1` [Compound 46, 4-((7-methoxy-1H-imidazo[4,5-c][1,8]naphthyridin-1-yl)methyl)phenyl sulfamide], the IC50 [1] is reported as 1600 nM, the inhibition at 20 µM [1] is reported as 75% and the IC50 [3] is reported as 5.2 nM. The IC50 [4] was 2400 nM and the inhibition at 20 µM [4, 10] was 85%.
Compound `COc1cnc2c(c1)ncc1ncn(Cc3ccc(S(N)(=O)=O)cc3)c12` [Compound 49, 4-((7-methoxy-1H-imidazo[4,5-c][1,5]naphthyridin-1-yl)methyl)benzenesulfonamide] has an IC50 [1] of 6000 nM, an inhibition at 20 µM [1] of 67% and an IC50 [2] of 4.8 nM. For the same compound, the IC50 [3] was 1.9 nM, the IC50 [4] was 10000 nM and the inhibition at 20 µM [4, 9] was 67%.
`COc1ccc2c(ncc3nc(C(F)(F)F)n(Cc4ccc(S(N)(=O)=O)cc4)c32)n1` [Compound 47, 4-((7-methoxy-2-(trifluoromethyl)-1H-imidazo[4,5-c][1,8]naphthyridin-1-yl)methyl)benzenesulfonamide] showed an IC50 [1] of 3400 nM, an inhibition at 20 µM [1] of 72% and an IC50 [3] of 1 nM. The IC50 [4] was 5000 nM and the inhibition at 20 µM [4, 9] was 77%.
For `COc1cc2ncc3[nH]c(=O)n(Cc4ccc(S(N)(=O)=O)cc4)c3c2cc1OC` [Compound 1, 4-((7,8-dimethoxy-2-oxo-2,3-dihydro-1H-imidazo[4,5-c]quinolin-1-yl)methyl)benzenesulfonamide], the IC50 [1] was 2900 nM, the inhibition at 20 µM [1] was 50% and the IC50 [2] was 5.9 nM. For the same compound, the IC50 [3] was 1.7 nM, the inhibition at 20 µM [6] was 32% and the “Hepatic extraction ratio Re” value [7] was 0. For the same compound, the “Half-life t1/2 (min)” value [7, 11] was “∞” and the inhibition at 20 µM [4, 10] was 19%.
In the case of `COc1ccc2ncc3ncn(Cc4ccc(S(N)(=O)=O)cc4)c3c2c1` [Compound 36, 4-((8-methoxy-1H-imidazo[4,5-c]quinolin-1-yl)methyl)benzenesulfonamide], the IC50 [1] is reported as 1500 nM, the inhibition at 20 µM [1] is reported as 66% and the IC50 [2] is reported as 36 nM. It also gave an IC50 [3] of 3.1 nM, an IC50 [6] of 2000 nM and an inhibition at 20 µM [6] of 48%. The “Hepatic extraction ratio Re” value [7] was 0.55, the half-life [7, 11] was 49 min and the microsomal CLint [7] was 28 µL/min/mg. It also gave an IC50 [4] of 5000 nM and an inhibition at 20 µM [4, 10] of 57%.
With `COc1ccc2c(ncc3ncn(Cc4ccc(S(N)(=O)=O)cn4)c32)n1` [Compound 40, 6-((7-methoxy-1H-imidazo[4,5-c][1,8]naphthyridin-1-yl)methyl)pyridine-3-sulfonamide] the IC50 [1] was 65 nM, the inhibition at 20 µM [1] was 85% and the IC50 [2] was 0.23 nM. It also gave an IC50 [3] of 0.15 nM, an IC50 [4] of 130 nM and an inhibition at 20 µM [4, 10] of 96%. The AUC [5] was 241 ng·h/mL, the clearance [5] was 70 mL/min/kg and the half-life [5] was 162 min. It also gave a Vd [5] of 7.3 L/kg.
In the case of `COc1ccc2c(ncc3ncn(Cc4ccc(S(N)(=O)=O)nc4)c32)n1` [Compound 41, 5-((7-methoxy-1H-imidazo[4,5-c][1,8]naphthyridin-1-yl)methyl)pyridine-2-sulfonamide], the IC50 [1] is reported as 310 nM, the inhibition at 20 µM [1] is reported as 81% and the IC50 [2] is reported as 0.9 nM. It also gave an IC50 [3] of 0.21 nM, an IC50 [4] of 660 nM and an inhibition at 20 µM [4, 9] of 96%. For the same compound, the AUC [5] was 227 ng·h/mL, the clearance [5] was 74 mL/min/kg and the half-life [5] was 72 min. It also gave a Vd [5] of 4 L/kg.
In the case of `COc1cc2ncc3ncn([C@H](C)c4ccc(S(N)(=O)=O)cc4)c3c2cc1OC` [Compound 11a, (R)-4-(1-(7,8-dimethoxy-1H-imidazo[4,5-c]quinolin-1-yl)ethyl)benzenesulfonamide], the IC50 [1] is reported as 600 nM, the inhibition at 20 µM [1] is reported as 79% and the IC50 [2] is reported as 2.5 nM. The IC50 [3] was 0.88 nM, the IC50 [6] was 1200 nM and the inhibition at 20 µM [6] was 87%. The “Hepatic extraction ratio Re” value [7] was 0.85, the half-life [7, 11] was 11 min and the microsomal CLint [7] was 131 µL/min/mg. For the same compound, the IC50 [4] was 2100 nM and the inhibition at 20 µM [4, 9] was 84%.
In the case of `COc1cc2ncc3ncn(Cc4ccc(S(N)(=O)=O)nc4)c3c2cc1OC` [Compound 10, 5-((7,8-dimethoxy-1H-imidazo[4,5-c]quinolin-1-yl)methyl)pyridine-2-sulfonamide], the IC50 [2] is reported as 27 nM, the “Hepatic extraction ratio Re” value ([8]; Human liver microsome) is reported as 0 and the “Half-life t1/2 (min)” value ([8]; Human liver microsome 0.5 mg/mL, NADPH and UDPGA, 37° C.) is reported as “∞”. The IC50 [3] was 1.1 nM.

Reference: patent US11673889B2, “Substituted imidazo[4,5-c][1,8]naphthyridines as phosphodiesterase inhibitors” (Nanjing Zhengxiang Pharmaceuticals Co., Ltd., priority 2019, dated 2023)
